# “Also recorded” adds a separate entry of the source.
# Tests used:
# [1] = tested on: LDLR; test: SDS-PAGE/Western blot of LDLR expression in E3 astrocyte cells; type: cell-based, mouse; conditions: 10 μM, 24 hrs, Western blot, FIGS. 6 and 7
# Method: Experiments were set up to test whether the claimed compounds increase LDLR expression in cortical astrocyte cells. The experiments involved treating mouse cortical astrocyte cells (E3 astrocyte cells) with the claimed compounds at 10 μM concentration for an incubation time of 24 hrs. DMSO solvent was used as a negative control, because the compounds were dissolved in DMSO when applied to the cells.
# (§1) Western blot protocol and analysis was used to determine the LDLR levels in the E3 astrocyte cells. The western blot, otherwise known as a protein immunoblot, is a widely used analytical technique used to detect specific proteins in a cell culture or tissue sample. It uses gel electrophoresis to separate proteins by 3-D structure or denatured proteins by the length of the polypeptide. The proteins are then transferred to a membrane (typically nitrocellulose or PVDF), where they are stained with antibodies specific to the target protein. […] FIGS. 6 and 7 show gel images showing the effects the claimed compounds have on the target proteins. The protein bands show the presence and amount of each target protein present in the media from treated cells (compound numbers shown in the column headers).
# (§2) In this case, after the 24-hour culture period, the treated cell media from cells treated with each respective compound were run by electrophoresis on polyacrylamide gel containing sodium dodecyl sulfate (SDS). The proteins from the SDS-PAGE process were then transferred to a nitrocellulose […] and stained.
# (§3) FIGS. 6 and 7 show the presence of the following proteins in mouse E3 astrocyte cells: AbcA1, LDLR, ApoE3, and GAPDH. The GAPDH protein serves as the loading control protein for the western blot analysis. For each of the claimed compounds, FIGS. 6 and 7 show three samples run to determine the presence and amount of each indicated protein. The three samples for each treatment compound are indicated by the line under the compound number—the line stretches across three columns of protein bands.
# (§4) The E3 astrocyte cells (1.6×10^4 cells/96-well plate) were grown for 1 day in RPMI, followed by a 24 hour equilibration in serum-free Opti-MEM (Life Technologies). Treatments were carried out in triplicate with […] of fresh Opti-MEM containing 10 μM of compound or vehicle (0.1% DMSO) for 24 hours. After the incubation time, the cellular media was collected as samples.
# (§5) The collected samples were prepared for SDS-PAGE and western blot analysis by centrifuging and then extracting the protein by TCA-precipitation. The extracted protein was then resuspended in a Tris buffer.
# (§6) After incubation and collection, the samples were run on a SDS-polyacrylamide gel (10% SDS). The SDS-polyacrylamide gel comprises the following:
# (§7) Each sample was prepared to run on the SDS-polyacrylamide gel. About 20 μL of each sample was prepared to be run in the gel. The samples were prepared comprising the following:
# (§8) The SDS-PAGE process was run with SDS-PAGE running buffer (Tris base, glycine, and 10% SDS) at 150 V until the dye front reached the bottom of the gel.
# (§9) For the western blot portion of the analysis, the separated protein bands in the gel are then transferred to a nitrocellulose membrane by methods well known in the art. Following the western blot transfer, the blot is rinsed several times with dH2O to remove the salts. After blocking unreacted sites on the nitrocellulose membrane, all protein bands are stained with 0.5% Ponceau S (0.5 g Ponceau S, 1 ml Glacial HAc, 99 ml dH2O) and the target protein antibody.
# (§10) The antibodies used for staining AbcA1 were obtained from Novus (NB100-2068). The antibodies used for staining LDLR were obtained from MBL International (JM-3839). The antibodies used for staining intracellular apoE were obtained from Meridian Life Science (K74180B). The antibodies used for staining GAPDH were obtained from Santa Cruz (sc-25778).
# [2] = tested on: apoE3; test: ELISA of apoE3 levels in conditioned media of compound-treated mouse cortical astrocyte cells; type: cell-based; conditions: for ApoE3 Levels in Cell Media, Average of Three Tests / ApoE3 Levels in Cell Media, Test 1 / ApoE3 Levels in Cell Media, Test 2 / ApoE3 Levels in Cell Media, Test 3: 10 μM compound, 24 hours, normalized to cell protein, relative to DMSO treated cells
# Method: ApoE inhibition can be readily determined by any one of several assays and techniques known to those of ordinary skill in the art, including the enzyme-linked immunosorbant assay (ELISA). In the experimental results shown in Table 2 and FIG. 5, the ELISA assay was carried out on cortical astrocyte cells from mice. Astrocyte cells produce apoE, LDLR and AbcA1 proteins.
# The experiments involved treating mouse cortical astrocyte cells with the claimed compounds at 10 μM concentration for an incubation time of 24 hrs. DMSO solvent was used as a negative control, because the compounds were dissolved in DMSO when applied to the cells.
# The ELISA technique involves immobilizing an apoE-specific capture antibody to a 96-well plate, addition of sample (conditioned medium from mouse cortical astrocyte cells treated with the compound for 24 hours), and detection of the bound apoE using a second apoE-specific biotinylated antibody and streptavidin-HRP.
# The Mabtech ELISA kit detects the presence of the three apoE isoforms: apoE2, apoE3, and apoE4.
# To obtain the data shown in Table 2 and FIG. 5, the mouse cortical astrocyte cells were maintained in DMEM medium (Invitrogen) supplemented with 10 mM HEPES, 1 mM sodium pyruvate, 4.5 g/L glucose, 1% penicillin/streptomycin, and 10% fetal bovine growth serum (Invitrogen) at 37° C., with 5% CO2.
# The cells (6×10^4 cells/24-well plate) were grown for 1 day in RPMI, followed by a 24 hour equilibration in serum-free Opti-MEM (Life Technologies). Treatments were carried out in triplicate with […] of fresh Opti-MEM containing 10 μM of compound or vehicle (0.1% DMSO) for 24 hours. […] ApoE concentration in the sample was calculated based on a standard curve derived using known amounts of purified apoE (from Biodesign).
# The protein levels in the cells in the 24-well plates were measured using BCA Protein Assay Kit (from Pierce) and used to normalize the data. […] Sample apoE3 concentrations were represented relative to the DMSO treated cells.
# The bars in FIG. 5 reflect the respective mean level apoE3 in the media for each compound with an indication of one […].
# [3] = tested on: AbcA1; test: SDS-PAGE/Western blot of AbcA1 expression in E3 astrocyte cells; type: cell-based, mouse; conditions: 10 μM, 24 hrs, Western blot, FIGS. 6 and 7
# Description: as §1, §2, §3
# AbcA1 protein plays a key role in regulating cholesterol in biological systems and therefore affects amyloid beta plaque formation. The goal of the biological screen (results shown in FIGS. 6 and 7) was to find compounds that prevent amyloid beta (Aβ) plaque formation, one of the deleterious causes of Alzheimer's Disease.
# as §4, §5, §6, §7, §8, §9, §10
Compound,LDLR expression (amount of LDLR protein) compared to the DMSO control [1],"ApoE3 Levels in Cell Media, Average of Three Tests [2]","ApoE3 Levels in Cell Media, Test 1 [2]","ApoE3 Levels in Cell Media, Test 2 [2]","ApoE3 Levels in Cell Media, Test 3 [2]",AbcA1 expression compared to the DMSO control [3],"apoE (apoE3) expression compared to the control DMSO, in words ([2]; 10 μM, 24 hrs, ELISA of media)"
"CCC(C)NC(=O)c1ccc2ccccc2c1 (centres unmarked) [Compound 88, naphthalene-2-carboxylic acid sec-butylamide]",increase,100.678 % of the DMSO control,104.1856 % of the DMSO control,95.94 % of the DMSO control,101.9038 % of the DMSO control,–,–
CC(C)CNC(=O)c1ccc2ccccc2c1 [Compound 89],increase,129.8502 % of the DMSO control,110.4906 % of the DMSO control,131.1414 % of the DMSO control,147.9187 % of the DMSO control,–,–
O=S(=O)(c1ccc2ccccc2c1)N1CCOCC1 [Compound 95],increase,96.13 % of the DMSO control,86.87 % of the DMSO control,92.02 % of the DMSO control,109.5 % of the DMSO control,–,–
O=S(=O)(c1ccc2ccccc2c1)N1CCCC1 [Compound 96],increase,118.6531 % of the DMSO control,104.9618 % of the DMSO control,132.594 % of the DMSO control,118.4035 % of the DMSO control,–,–
O=S(=O)(c1ccc2ccccc2c1)N1CCCCC1 [Compound 97],increase,86.86 % of the DMSO control,90.22 % of the DMSO control,90.28 % of the DMSO control,80.08 % of the DMSO control,–,–
O=C(Nc1ccccc1)c1ccc2ccccc2c1 [Compound 98],–,76.25 % of the DMSO control,74.22 % of the DMSO control,79 % of the DMSO control,75.5362 % of the DMSO control,decrease,–
O=S(=O)(Nc1ccc(Br)cc1)c1ccc2ccccc2c1 [Compound 103],increased,109.1222 % of the DMSO control,84.78 % of the DMSO control,113.1319 % of the DMSO control,129.4577 % of the DMSO control,increase,–
O=S(=O)(NCc1ccccc1)c1cccc2ccccc12 [Compound 125],increased,88.78 % of the DMSO control,82.44 % of the DMSO control,91.39 % of the DMSO control,92.51 % of the DMSO control,increase,–
CCN(CC)S(=O)(=O)c1ccc2ccccc2c1 [Compound 129],–,81.14 % of the DMSO control,80.4063 % of the DMSO control,82.82 % of the DMSO control,80.19 % of the DMSO control,decrease,–
CC(C)CNS(=O)(=O)c1ccc(-c2ccccc2)cc1 [Compound 133],–,73.18 % of the DMSO control,81.61 % of the DMSO control,72.54 % of the DMSO control,65.4 % of the DMSO control,decrease,–
O=S(=O)(c1ccc(-c2ccccc2)cc1)N1CCOCC1 [Compound 134],increased,84.75 % of the DMSO control,81.07 % of the DMSO control,90.3 % of the DMSO control,82.89 % of the DMSO control,increase,–
O=S(=O)(NC1CCCCC1)c1ccc(-c2ccccc2)cc1 [Compound 136],increase,89.73 % of the DMSO control,89.58 % of the DMSO control,91.2 % of the DMSO control,88.41 % of the DMSO control,–,–
CC(NS(=O)(=O)c1ccc(-c2ccccc2)cc1)c1ccccc1 (centres unmarked) [Compound 137],increase,88.63 % of the DMSO control,79.41 % of the DMSO control,86.65 % of the DMSO control,99.83 % of the DMSO control,–,–
CCCCN(CCCC)Cc1ccc2ccccc2c1 [Compound 139],increased,74.779 % of the DMSO control,67.21 % of the DMSO control,81.69 % of the DMSO control,75.44 % of the DMSO control,decreases AbcA1 expression significantly; also recorded: decrease,–
"c1ccc(C(c2ccccc2)(c2ccc3ccccc3c2)N2CCOCC2)cc1 [Triarylmethyl Amine Compound No. 38, reference compound]",–,79.07 % of the DMSO control,76.4862 % of the DMSO control,92.35 % of the DMSO control,68.38 % of the DMSO control,significantly decrease or inhibit; also recorded: decrease,effectively decrease

# — patent US10214502B2, “Method of inhibiting apolipoprotein-E expression while increasing expression of at least one of LDL-receptor protein or AbcA1 protein comprising administering a small compound” (California State University, Fresno, priority 2016, dated 2019)
